These results are taken from US7294511B2, “Methods for delivering nucleic acid molecules into cells and assessment thereof” (Chromos Molecular Systems, Inc., priority 2001, dated 2007).

For data set [1], the system named is CHO-KI cells. Nature of the data set: Ultrasound mediated transfection of CHO-KI cells with GFP chromosomes and Saint-2. It counts as cell-based. As to the method: Vesicles were prepared at a lipid concentration of 700 nmol/ml lipid (cationic lipid/DOPE 1:1) as follows. In a glass tube (10 ml) 350 nmol cationic lipid (SAINT-2) was mixed with 350 nmol dioleoylphosphatidylethanolamine (DOPE), both solubilized in an organic solvent (Chloroform, Methanol or Chloroform/Methanol 1:1, v/v). dioleoylphosphatidylethanolamine (DOPE; Avanti Polar Lipids, Alabaster, Ala.) forms inverse hexagonal phases in a membrane and weakens the membrane. Other effectors that may be used are cis-unsaturated phosphatidylethanolamines, cis-unsaturated fatty acids, and cholesterol.
The solvent was evaporated under a stream of nitrogen (15 min/250 μl solvent at room temperature). The remaining solvent was removed totally by drying the lipid for 15 min in an desiccator under high vacuum from a vacuum pump. To the dried mixture was added 1 ml ultrapure water. This was vortexed vigorously for about 5 min. The resulting solution was sonicated in an ultrasonication bath (Laboratory Supplies Inc. N.Y.) until a clear solution was obtained. The resulting suspension contained a population of unilamellar vesicles with a size distribution between 50 to 100 nm.
CHO-KI cells were grown at 37° C., 5% CO2, in CHO—S-SFM 2 Medium, (Gibco BRL, Paisley, UK). Between 2×10^5 and 5×10^5 cells were plated onto sterile glass slides in a 12 well plate 24 h before usage.
Transfection of the cells was performed as follows. The medium was removed from the cells, and the cells were washed twice with HBSS (Hanks balanced salt solution without Phenol Red (Gibco BRL, UK)) at 37° C. Then 500 μl HBSS at 37° C. was added per well, followed by 10 μl of the freshly prepared vesicle solution (prepared in Example 2) to yield a final concentration of 23.3 nmol/ml.
(§1) Alternatively, the medium was removed from the cells, and the cells were washed twice with HBSS. 500 μl HBSS/lipid solution at 37° C. was added to each well. The HBSS/lipid solution was prepared by adding 1 μl ethanolic lipid solution (prepared as described above) to 500 μl HBSS under vigorous vortexing. The plates were then sealed with parafilm tape and shaken gently at room temperature for 30 min. After incubation, ultrasound was applied at an output energy of 0.5 Watt/cm^2 for 60 sec through the bottom of the plate to the cells. The ultrasound was mediated by an ultrasound gel (Aquasonic 100, Parker, N.J.) between transducer and plate. The ultrasound was applied with an ImaRx Sonoporator 100. Immediately after applying ultrasound one GFP chromosome per seeded cell (2×10^5-5×10^5) (prepared in Example 1) was added. The plate was then sealed again and shaken gently for 1 h at room temperature. […]

Data set [2] concerns Hep-G2 cells. Put plainly: Ultrasound mediated transfection of Hep-G2 cells with GFP chromosomes and Saint-2. It counts as cell-based. As to the method:
as §1, with “temperature. After the incubation 1 ml medium (CHO—S-SFM 2 with 10% Fetal Calf Serum, 10000 μg/ml Penicillin and 10000 μg/ml Streptomycin Gibco BRL, Paisley, UK) was added to each well and the cells were incubated for 24 h at 37° C. The cells were then washed with medium, 1 ml medium was added, and the cells were incubated at 37° for another 24 h. Detection of expressed genes was then assayed by microscopy or detection of the transferred chromosome by FISH analysis.” for “temperature.”

Data set [3] concerns A9 cells. Nature of the data set: Ultrasound mediated transfection of A9 cells with GFP chromosomes and Saint-2. It counts as cell-based, murine. As to the method: as §1, with “temperature. After the incubation 1 ml medium (CHO—S-SFM 2 with 10% Fetal Calf Serum, 10000 μg/ml Penicillin and 10000 μg/ml Streptomycin Gibco BRL, Paisley, UK) was added to each well and the cells were incubated for 24 h at 37° C. The cells were then washed with medium, 1 ml medium was added, and the cells were incubated at 37° for another 24 h. Detection of expressed genes was then assayed by microscopy or detection of the transferred chromosome by FISH analysis.” for “temperature.”

Each structure is given as a SMILES string.

As to `CCCCCCCCC=CCCCCCCCCC(CCCCCCCCC=CCCCCCCCC)c1cc[n+](C)cc1.[Cl-]` (centres unmarked) [Saint-2, 1-methyl-4-(1-octadec-9-enyl-nonadec-10-enylenyl)pyridinium chloride], the “cells remained on the glass slide after transfection” value is given as 30% in data set [1] (Saint-2/DOPE, ultrasound 0.5 Watt/cm^2 60 sec, visual inspection) and 30% in data set [2] (Hep-G2, Saint-2/DOPE, ultrasound 0.5 Watt/cm^2 60 sec). Besides, in data set [1] (after 48 hours), the “GFP positive cells as % of original population” value worked out at 3%. Further, the “remaining cells positive for green fluorescent protein expression” value in data set [1] (after 48 hours, of the cells remaining on the slide) amounted to 10%; in data set [2] (Hep-G2, of the cells remaining on the slide), 80%; in data set [3] (A9, of the cells remaining on the glass), 50%. Also, the “cells containing an intact artificial chromosome (FISH)” value in data set [1] (after culturing for two weeks) came to 1.4%. Further, in data set [3] (A9, Saint-2/DOPE, ultrasound 0.5 Watt/cm^2 60 sec), the “cells remained on the glass after transfection” value was 30%.
